Laboratory results published in publication PMC9570109, “Improved Trimethylangelicin Analogs for Cystic Fibrosis: Design, Synthesis and Preliminary Screening” (International Journal of Molecular Sciences, 2022).
Entries after “also recorded” stand apart in the source; their conditions may differ.

Biological target: T1, F508del CFTR (Homo sapiens, UniProt P13569, DEL508-508)
T1 construct: expressed in transfected cells; host or cells: CFBE41o- cells overexpressing F508del CFTR and HS-YFP (YFP-H148Q/I152L), a gift from N. Pedemonte, Gaslini Institute
Assay: F508del CFTR functional rescue (corrector) HS-YFP single-cell assay
Type: cell-based
Conditions: CFBE41o- YFP-F508del cells; for F508del CFTR rescue (corrector) activity: 48 h incubation, 200 nM
Procedure: To verify the possibility that the title compounds may act as correctors in CFBE41o-, overexpressing F508del and the high sensitivity halide-sensing yellow fluorescent protein (HS-YFP) YFP-H148Q/I152L, we examined the effect of 48 h preincubation with vehicle or the TMA analogs or TMA or VX809 (Lumacaftor), as a positive control.
At the time of the assay, the correction of the F508del-CFTR function was evaluated in single-cell analysis by measuring the decrease in YFP fluorescence after the concomitant addition of extracellular iodide and the activating cocktail (20 μM forskolin and 5 μM VX770), in the presence or absence of the 10 μM CFTR inhibitor, CFTRinh-172. […] At least two derivatives show CFTR activity similar to that of the parent TMA.
The effect of TMA analogs on CFTR function was tested in CFBE41o- overexpressing F508del and the high sensitivity halide-sensing yellow fluorescent protein (HS-YFP) YFP-H148Q/I152L (a generous gift from N. Pedemonte, Gaslini Institute, Genova, Italy). YFP CF cells were seeded on round glass coverslips and preincubated for 48 h with vehicle or test compounds or VX809 or TMA. At the time of the assay, cells were washed in Dulbecco’s PBS (in mM: 137 NaCl, 2.7 KCl, 8.1 Na2HPO4, 1.5 KH2PO4, 1 CaCl2, and 0.5 MgCl2, pH 7.4) and subsequently incubated with a stimulation cocktail (20 μM forskolin and 5 μM VX770) in the presence and absence of 10 μM CFTR inhibitor, CFTRInh-172 (Sigma), for 30 min. The coverslips were then transferred on a Nikon TMD inverted microscope through a Nikon Fluor 40 objective. The signal was acquired with a Hamamatsu C2400–97 charge-coupled intensified video camera at a rate of 1 frame/3 s. The fluorescence coming from every single cell was analyzed by custom software (Spin, Vicenza, Italy). The results are presented as transformed data to obtain the percentage signal variation (Fx) relative to the time of addition of the stimulus, according to the equation: Fx = ([Ft − Fo]/Fo) × 100, where Ft and Fo are the fluorescence values at time t and at the time of stimulus addition, respectively. The assay of each sample consists of a continuous 99-s fluorescence reading with 30 s before and 69 s after injection of the iodide-rich Dulbecco’s PBS (in mM: 137 NaI, 2.7 KCl, 8.1 Na2HPO4, 1.5 KH2PO4, 1 CaCl2, and 0.5 MgCl2, pH 7.4) to reach a final iodide concentration of 50 mM [20]. The different sensitivity of HS-YFP toward iodide and chloride allows assays to be performed by measuring the transport of anions through the plasma membrane as changes in cell fluorescence. For this assay, cells expressing HS-YFP are equilibrated in a physiological chloride-rich saline solution (e.g., Dulbecco’s PBS). During fluorescence reading, cells are exposed to a high concentration of iodide. Iodide influx quenches the cell fluorescence with a rate that depends on the permeability of the cell membrane to halides, and therefore, on the activity of the anion channels or transporters.
Figure 4 Evaluation of different TMA analogs as F508del CFTR correctors in CFBE41o- YFP-F508del cells. Correction of F508del-CFTR function was assessed, in a single cell, by measuring the decrease in YFP fluorescence upon addition of extracellular iodide and with the activating cocktail, in the presence or absence of CFTR inhibitor, CFTRInh-172. Iodide influx was tested under control condition (vehicle) or after 48 h incubation with the correctors 200 nM or 1 μM VX809. The YFP fluorescence decay rate was calculated by fitting the fluorescence data with an exponential function of time courses. CFTR activity was obtained by the difference between the fluorescence decay rate of YFP in the presence and absence of CFTRInh-172. Fluorescence coming from every single cell of at least five cells per field was recorded. Each bar corresponds to the mean ± SEM of data points coming from at least three different experiments (5–10 different cells/each experiment). […]

T1 sequence (P13569 with tags, fused parts or gaps DEL508-508): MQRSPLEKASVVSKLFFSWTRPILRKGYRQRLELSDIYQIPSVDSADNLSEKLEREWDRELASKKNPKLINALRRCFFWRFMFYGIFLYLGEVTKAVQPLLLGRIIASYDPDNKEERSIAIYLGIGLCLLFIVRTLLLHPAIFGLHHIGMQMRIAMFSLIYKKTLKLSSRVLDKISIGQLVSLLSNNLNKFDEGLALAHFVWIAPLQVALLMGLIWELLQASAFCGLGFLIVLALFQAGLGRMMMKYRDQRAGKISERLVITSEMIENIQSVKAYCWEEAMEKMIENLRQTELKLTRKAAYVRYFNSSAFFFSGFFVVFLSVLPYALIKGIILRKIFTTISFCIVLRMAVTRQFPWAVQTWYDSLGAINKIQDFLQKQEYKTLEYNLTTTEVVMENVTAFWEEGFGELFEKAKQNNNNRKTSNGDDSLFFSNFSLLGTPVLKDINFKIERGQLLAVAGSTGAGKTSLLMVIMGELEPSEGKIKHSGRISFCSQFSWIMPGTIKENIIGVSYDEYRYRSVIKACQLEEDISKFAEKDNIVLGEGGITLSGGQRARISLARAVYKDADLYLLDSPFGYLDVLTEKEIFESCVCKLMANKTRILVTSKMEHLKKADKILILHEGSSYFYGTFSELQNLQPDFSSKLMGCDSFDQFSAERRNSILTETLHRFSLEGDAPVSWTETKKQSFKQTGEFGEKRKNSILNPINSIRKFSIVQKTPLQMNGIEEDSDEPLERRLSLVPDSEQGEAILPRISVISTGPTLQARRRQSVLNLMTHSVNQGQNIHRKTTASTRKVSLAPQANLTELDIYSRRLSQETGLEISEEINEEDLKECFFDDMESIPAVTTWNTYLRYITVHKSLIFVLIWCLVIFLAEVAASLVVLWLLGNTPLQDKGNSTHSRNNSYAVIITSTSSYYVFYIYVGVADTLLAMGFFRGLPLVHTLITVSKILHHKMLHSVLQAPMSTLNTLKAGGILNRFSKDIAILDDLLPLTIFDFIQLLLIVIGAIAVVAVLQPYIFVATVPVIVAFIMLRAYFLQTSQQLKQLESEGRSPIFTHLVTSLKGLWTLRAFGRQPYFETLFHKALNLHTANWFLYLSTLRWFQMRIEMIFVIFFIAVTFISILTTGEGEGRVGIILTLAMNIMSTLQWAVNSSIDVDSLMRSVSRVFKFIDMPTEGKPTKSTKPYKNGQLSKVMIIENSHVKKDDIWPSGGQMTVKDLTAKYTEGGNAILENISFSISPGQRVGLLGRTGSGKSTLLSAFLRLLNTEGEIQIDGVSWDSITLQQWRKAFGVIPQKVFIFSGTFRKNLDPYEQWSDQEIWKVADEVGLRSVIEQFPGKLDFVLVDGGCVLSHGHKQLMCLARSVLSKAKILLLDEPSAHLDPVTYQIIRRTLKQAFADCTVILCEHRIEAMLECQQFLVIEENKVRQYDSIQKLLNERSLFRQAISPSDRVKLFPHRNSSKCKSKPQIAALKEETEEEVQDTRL

Row | Structure (SMILES) | F508del CFTR rescue (corrector) activity | F508del CFTR rescue (corrector) activity (listed as 12) | reduction in YFP fluorescence induced by iodide influx compared to vehicle (48 h treatment, representative time courses) | F508del CFTR rescue (corrector) activity (listed as 25)
1 | Cc1cc2c(-c3ccccc3)cc(=O)oc2c2c(C)coc12 [4-PhDMA] | active; also recorded: most active derivatives of the series | promising F508del CFTR rescue ability | greater reduction in YFP fluorescence | 
2 | Cc1cc(=O)oc2c1cc(-c1ccccc1)c1occ(C)c12 [6-PhDMA] | inactive |  |  | 
3 | Cc1cc(=O)oc2c1cc(-c1ccc(N)cc1)c1occ(C)c12 [pANDMA] | most active derivatives of the series |  |  | promising F508del CFTR rescue ability
